Assay results published in patent publication US20050131056A1, “2- thia-dibenzoazulenes as inhibitors of tumor necrosis factor production and intermediates for the preparation thereof” (Pliva-Istrazivacki Institut d.o.o., priority 2002, published 2005).

System: TNF-α and IL-1 secretion
Assay: investigated assays, not specified which (TNF-α/IL-1 secretion in human PBMC, in mouse peritoneal macrophages, LPS-induced secretion in mice, writhing assay, LPS-induced shock)
Conditions: at least two of five assays, not named; active = IC50 20 μM or lower (PBMC), 10 μM or lower (macrophages), 30% or more TNF-α inhibition at 10 mg/kg, analgetic activity as acetylsalicylic acid or better, survival 40% or more at 30 mg/kg
Protocol: The inhibitory action of the present compounds upon TNF-α and IL-1 secretion was determined by the following in vitro and in vivo experiments:
Human peripheral blood mononuclear cells (PBMC) were prepared from heparinized whole blood after separating PBMC on Ficoll-Paque™Plus (Amersham-Pharmacia). To determine the TNF-α level, 3.5-5×10^4 cells were cultivated in a total volume of 200 μl for 18 to 24 hours on microtitre plates with a flat bottom (96 wells, Falcon) in RPMI 1640 medium, into which there were added 10% FBS (Fetal Bovine Serum, Biowhittaker) previously inactivated at 54° C./30 min, 100 units/ml of penicillin, […] of streptomycin and 20 mM HEPES (GIBCO). The cells were incubated at 37° C. in an atmosphere with 5% CO2 and 90% humidity. […] The IL-1 level was determined in an assay under the same conditions and with the same number of cells and the same concentration of stimuli stimulus by ELISA procedure (R&D Systems). The percentage of inhibition of TNF-α or IL-1 production was calculated by the equation: • % inhibition=[1−(TS-NC)/(PC-NC)]*100. […]
In order to obtain peritoneal macrophages, Balb/C mouse strain males, age 8 to 12 weeks, were injected i.p. with 300 μg of zymosan (SIGMA) dissolved in a phosphate buffer (PBS) in a total volume of 0.1 ml/mouse. […] The TNF-α level in the cell supernatant was determined by ELISA procedure (R&D Systems, Biosource). […]

## O=Cc1scc2c1-c1ccccc1Sc1ccccc1-2 [Example 14, 2,8-Dithia-dibenzo[e,h]azulene-1-carbaldehyde]
  activity in the investigated assays: activity in at least two investigated assays
